From article PMC10342533, “Novel Tetrazole Derivatives Targeting Tubulin Endowed with Antiproliferative Activity against Glioblastoma Cells” (International Journal of Molecular Sciences, 2023) come the findings set out here.

≈ marks a conversion by molar mass, not a printed value.

As a reminder, the IC50 is the concentration that inhibits the measured activity by half. One may read the solubility as the concentration that dissolves in the medium under given conditions. Lower therefore signals a poorly soluble substance. One may read the melting point as the temperature, or range, at which the solid turns liquid.

For data set [1], the system named is HEK-293 (embryonic kidney). As to the kind of experiment: Cell growth inhibition, MTT assay, non-tumor HEK-293. The class given is cell-based. As to conditions: Homo sapiens, HEK293, 72 h, non-tumorigenic cell line. As to the method:
The ability of the synthesized compounds to inhibit the cell proliferation of human cancer cell lines was assayed by measuring cell viability through the use of the MTT method 72 h after treatment. For this purpose, representative cell lines of the most frequent kinds of cancer were selected, including the following: HeLa (cervix epithelioid carcinoma), MCF7 (breast adenocarcinoma), U87 MG (glioblastoma), T98G (temozolomide resistant glioblastoma), HepG2 (hepatocellular carcinoma), HCT8 (colorectal carcinoma), and HT-29 (colon adenocarcinoma). […] The compounds were also tested against the non-tumor HEK-293 cells to study their selectivity toward cancer cells. […] The cell lines were obtained from ATTC (Manassas, VA, USA). […] The cells were periodically tested for Mycoplasma infection by using a MycoAlert kit (Lonza, Norwest, Australia), and only Mycoplasma-free cells were used in the experiments. […] Louis, MO, USA), which was dissolved in PBS at 5 mg/mL in accordance with the manufacturer's instructions. […] Untreated cells were used as negative controls. The antiproliferative activity of compounds was measured 72 h after drug exposure through the MTT assay. […] For this purpose, compounds were used at different concentrations, ranging from 10^-10 to 10^-2 M. Measurements were performed in triplicate, and each experiment was repeated three times. The IC50 values were determined using Origin software (version 9.6, OriginLab, Washington, DC, USA).

For data set [2], the system named is HepG2 (hepatocellular carcinoma). As to the kind of experiment: Cell growth inhibition, MTT assay, HepG2. It counts as cell-based. As to conditions: Homo sapiens. The procedure: (§1) The ability of the synthesized compounds to inhibit the cell proliferation of human cancer cell lines was assayed by measuring cell viability through the use of the MTT method 72 h after treatment. For this purpose, representative cell lines of the most frequent kinds of cancer were selected, including the following: HeLa (cervix epithelioid carcinoma), MCF7 (breast adenocarcinoma), U87 MG (glioblastoma), T98G (temozolomide resistant glioblastoma), HepG2 (hepatocellular carcinoma), HCT8 (colorectal carcinoma), and HT-29 (colon adenocarcinoma).
(§2) The cell lines were obtained from ATTC (Manassas, VA, USA). […] The cells were periodically tested for Mycoplasma infection by using a MycoAlert kit (Lonza, Norwest, Australia), and only Mycoplasma-free cells were used in the experiments.
(§3) Then, every compound was added (10 µL/well) to a final concentration of 10 µM. Untreated cells were used as negative controls. The antiproliferative activity of compounds was measured 72 h after drug exposure through the MTT assay. […] For this purpose, compounds were used at different concentrations, ranging from 10^−10 to 10^−2 M. Measurements were performed in triplicate, and each experiment was repeated three times. The IC50 values were determined using Origin software (version 9.6, OriginLab, Washington, DC, USA).
In general terms: Tetrazolium dyes change colour on reduction, which living cells bring about.

Data set [3] deals with T1, microtubular protein isolated from calf brains (bovine brain tubulin) (Bos taurus, UniProt P81947+Q6B856).
T1 construct: from tissue; host or cells: calf (bovine) brain
T1 sequence (Q6B856 whole entry): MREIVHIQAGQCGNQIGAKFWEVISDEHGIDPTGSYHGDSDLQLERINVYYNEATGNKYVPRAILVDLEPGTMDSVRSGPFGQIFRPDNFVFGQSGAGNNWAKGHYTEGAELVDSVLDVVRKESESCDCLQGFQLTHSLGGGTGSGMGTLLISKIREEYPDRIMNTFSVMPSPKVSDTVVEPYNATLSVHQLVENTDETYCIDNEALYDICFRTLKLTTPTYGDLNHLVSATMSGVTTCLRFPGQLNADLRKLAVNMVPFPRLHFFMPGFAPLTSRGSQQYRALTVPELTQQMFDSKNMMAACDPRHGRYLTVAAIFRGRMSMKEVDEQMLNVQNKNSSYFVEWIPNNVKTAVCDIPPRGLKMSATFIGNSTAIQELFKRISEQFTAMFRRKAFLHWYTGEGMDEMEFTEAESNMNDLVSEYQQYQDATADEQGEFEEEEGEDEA
T1 sequence (P81947 whole entry): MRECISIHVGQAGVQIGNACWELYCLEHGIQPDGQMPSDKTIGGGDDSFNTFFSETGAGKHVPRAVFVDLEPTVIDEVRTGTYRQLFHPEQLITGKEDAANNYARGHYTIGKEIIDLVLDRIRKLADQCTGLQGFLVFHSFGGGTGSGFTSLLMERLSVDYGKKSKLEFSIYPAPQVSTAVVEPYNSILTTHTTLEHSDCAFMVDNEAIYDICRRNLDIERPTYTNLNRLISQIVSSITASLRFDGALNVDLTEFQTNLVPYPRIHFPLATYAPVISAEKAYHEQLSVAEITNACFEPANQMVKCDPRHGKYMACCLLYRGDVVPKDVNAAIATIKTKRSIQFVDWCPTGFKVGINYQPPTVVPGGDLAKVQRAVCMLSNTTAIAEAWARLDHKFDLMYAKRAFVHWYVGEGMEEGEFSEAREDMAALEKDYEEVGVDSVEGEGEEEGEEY
In words: Tubulin polymerization inhibition (TPI). It counts as biochemical. As to conditions: in vitro tubulin polymerization, mean ± SD. As to the method:
We evaluated the capacity of the new synthesized compounds to inhibit the polymerization of microtubular protein isolated from calf brains. The assays were performed by taking absorbance measurements to quantify the amount of polymer mass formed in the presence (or absence; negative controls) of the compounds.
Bovine brain tubulin was isolated as previously described by following a modified version of the Shelanski method. The protein was stored at −80 °C, and its concentration was determined by employing the Bradford method before each use. […] Tubulin polymerization, caused when heating the samples, was accompanied by an increase in the absorbance (at 450 nm) of the sample that was monitored by using a Helios α spectrophotometer. […] Measurements were performed in triplicate in two independent experiments using microtubular proteins from different preparations.

Data set [4] in a line: Aqueous solubility, shake-flask method, phosphate buffer pH 7.4. The class given is physicochemical. As to conditions: thermodynamic from solid, phosphate buffer pH 7.4, shake-flask, mean ± SD of three experiments. As to the method:
The aqueous solubility of tetrazole derivatives was determined by the shaking flask methodology in phosphate buffer at pH 7.4, microfiltration, and quantification of the saturated solutions via UV spectroscopy. […] The introduction of polar groups on the 3-indole position was favorable since the most soluble compounds were the oximes 16–19 (38–53 µg/mL), followed by the carbaldehyde series 12–15 (33–45 µg/mL), and the carbonitrile derivatives (25–40 µg/mL), whereas the unsubstituted indoles 8–11 were the least soluble series (19–35 µg/mL).
The aqueous solubility of the compounds was determined using the saturation shake-flask method. First, calibration lines at the maximum wavelength of absorbance were determined for each compound. Then, 5 mg of each compound was suspended in 500 µL of pH 7.4 buffer, and the resulting mixture was shaken for 72 h at room temperature and filtrated over a […] filter to remove the insoluble fraction. The concentration of the compound in the supernatant (saturated solution) was determined by measuring UV absorbance at the maximum wavelength of absorbance and interpolation in the calibration line. A Helios Alfa Spectrophotometer was used for the UV measurements. The aqueous solubility values are given as the average of three independent experiments.

For data set [5], the system named is HCT8 (colorectal carcinoma). In words: Cell growth inhibition, MTT assay, HCT8. It counts as cell-based. The note with it: Homo sapiens. As to the method: as §1, §2, §3
Another data set relates to U87 MG (glioblastoma). In words: Cell growth inhibition, MTT assay, U87 MG. It counts as cell-based. The note with it: Homo sapiens, U-87 MG. As to the method: as §1, §2, §3
Data set [6] relates to T98G (temozolomide resistant glioblastoma). In words: Cell growth inhibition, MTT assay, T98G. The note with it: Homo sapiens. It counts as cell-based. The procedure:
as §1, §2, §3

The test system of data set [7] is HeLa (cervix epithelioid carcinoma). As to the kind of experiment: Cell growth inhibition, MTT assay, HeLa. It counts as cell-based. The note with it: Homo sapiens. The procedure: as §1, §2, §3
Data set [8] concerns HT-29 (colon adenocarcinoma). In words: Cell growth inhibition, MTT assay, HT-29, without or with verapamil. It counts as cell-based, human. The procedure:
as §1
Multidrug resistance (MDR) proteins, especially P-glycoprotein (P-gp), are often involved in resistance mechanisms affecting tubulin-binding drugs that are frequently related to the failure of cancer therapies. […] These pumps are also part of the blood–brain barrier.
as §2, §3

Data set [9] concerns MCF7 (breast adenocarcinoma). As to the kind of experiment: Cell growth inhibition, MTT assay, MCF7. The class given is cell-based. As to conditions: Homo sapiens. As to the method: as §1, §2, §3
[10] abbreviates: HCT-8, 72 h after drug exposure.
[11] abbreviates: Homo sapiens, HT-29, 72 h after drug exposure.
The mark [12] stands for this setting: Homo sapiens, HT-29, mean ± SD, Table S1.
[13] abbreviates: mean ± SD, Table S1, in the presence of verapamil (10 µM).

With `CSc1cc(-c2nnnn2-c2ccc3c(ccn3C)c2)cc(SC)n1` [Compound 11, 5-(5-(2,6-bis(methylsulfanyl)pyridin-4-yl)-1H-tetrazol-1-yl)-1-methyl-1H-indole], the melting point lay within 160 to 161 °C. Besides, the IC50 in [1] turned out to be 6.82 µM. Further, the IC50 in data set [2] (72 h after drug exposure) was 227 nM. The concentration for half-maximal inhibition (IC50) in [2] (mean ± SD, Table S1) came to 227 ± 2.5 nM. The IC50 in data set [3] was 3.8 ± 0.1 µM. Also, the solubility at 72 h in data set [4] turned out to be 30.7 ± 0.3 µg/mL (≈ 83.3 µM). The same compound gave an IC50 in data set [5] (setting [10]) of 236 nM. In the data set with U87 MG (glioblastoma) (72 h after drug exposure), this compound yielded an IC50 of 209 nM. Moreover, in the data set with U87 MG (glioblastoma) (mean ± SD, Table S1), the half-maximal inhibitory concentration (IC50) was 209.3 ± 1.9 nM. Also, 219 nM corresponded to half-maximal inhibition in [6] (72 h, 72 h after drug exposure) (IC50). In addition, 219 ± 2.2 nM corresponded to half-maximal inhibition in [6] (mean ± SD, Table S1) (IC50). In data set [7] (72 h after drug exposure), the IC50 was determined as 233 nM. The compound further gave a half-inhibitory concentration (IC50) in data set [7] (mean ± SD, Table S1) of 233.1 ± 1.4 nM. Moreover, half-maximal inhibition in data set [8] (setting [11]) (IC50) required 255 nM. This compound also gave an IC50 in data set [8] (setting [12]) of 255 ± 2.6 nM. Besides, the IC50 in data set [8] (setting [13]) was determined as 257 ± 3 nM. In data set [9] (72 h after drug exposure), this compound yielded an IC50 of 240 nM. Besides, 240.2 ± 2 nM corresponded to half-maximal inhibition in [9] (mean ± SD, Table S1) (IC50).

As to `COc1cc(-c2nnnn2-c2ccc3c(c2)c(C=O)cn3C)cc(Cl)n1` [Compound 13, 5-(5-(2-chloro-6-methoxypyridin-4-yl)-1H-tetrazol-1-yl)-1-methyl-1H-indole-3-carbaldehyde], the melting point lay within 214 to 215 °C. The IC50 in data set [1] stood at 3.72 µM. Besides, it took 55 nM to reach half-maximal inhibition in data set [2] (72 h after drug exposure) (IC50). The IC50 in data set [2] (mean ± SD, Table S1) is 55.3 ± 0.2 nM. Further, the IC50 in data set [3] was 2.8 ± 0.2 µM. The compound also registered a solubility at 72 h in data set [4] of 45.3 ± 0.4 µg/mL (≈ 123 µM). The same compound yielded an IC50 in data set [5] (setting [10]) of 50 nM. The same compound displayed an IC50 in data set [5] (HCT-8, mean ± SD, Table S1) of 50.1 ± 0.4 nM. In the data set with U87 MG (glioblastoma) (72 h after drug exposure), this compound returned an IC50 of 55 nM. For the same compound, the IC50 in the data set with U87 MG (glioblastoma) (mean ± SD, Table S1) came out at 55.4 ± 0.4 nM. The compound further had an IC50 in data set [6] (72 h, 72 h after drug exposure) of 54 nM. In data set [6] (mean ± SD, Table S1), this compound registered an IC50 of 54.1 ± 0.3 nM. In data set [7] (72 h after drug exposure), this compound had an IC50 of 57 nM. The same compound came in with an IC50 in data set [7] (mean ± SD, Table S1) of 57.5 ± 0.3 nM. This compound also came in with an IC50 in data set [8] (setting [11]) of 64 nM. The compound also returned an IC50 in [8] (setting [12]) of 64.2 ± 0.4 nM. Besides, in data set [8] (setting [13]), the IC50 came out at 67.3 ± 0.6 nM. For the same compound, half-maximal inhibition in data set [9] (72 h after drug exposure) (IC50) was put at 65 nM. This compound also had an IC50 in data set [9] (mean ± SD, Table S1) of 65.4 ± 0.5 nM.

For `CSc1cc(-c2nnnn2-c2ccc3c(c2)c(C=O)cn3C)cc(SC)n1` [Compound 15, 5-(5-(2,6-bis(methylsulfanyl)pyridin-4-yl)-1H-tetrazol-1-yl)-1-methyl-1H-indole-3-carbaldehyde], the melting point lay in the range of 207 to 208 °C. In data set [1], this compound gave an IC50 of 6.48 µM. For the same compound, the IC50 in data set [2] (72 h after drug exposure) was determined as 137 nM. Besides, inhibition in data set [2] (mean ± SD, Table S1) was half-maximal at 137 ± 1.5 nM (IC50). This compound had an IC50 in data set [3] of 3.5 ± 0.2 µM. The compound further had a solubility at 72 h in data set [4] of 41.2 ± 0.4 µg/mL (≈ 104 µM). Also, the IC50 in [5] (setting [10]) was determined as 141 nM. This compound yielded an IC50 in [5] (HCT-8, mean ± SD, Table S1) of 141.3 ± 1 nM. Besides, in the data set on U87 MG (glioblastoma) (72 h after drug exposure), the IC50 was found to be 115 nM. Moreover, in the data set with U87 MG (glioblastoma) (mean ± SD, Table S1), the half-inhibitory concentration (IC50) was determined as 115 ± 1.4 nM. In data set [6] (72 h, 72 h after drug exposure), this compound returned an IC50 of 122 nM. In [6] (mean ± SD, Table S1), this compound had an IC50 of 122.5 ± 1.2 nM. Besides, the IC50 in data set [7] (72 h after drug exposure) was 144 nM. In addition, the midpoint of inhibition in data set [7] (mean ± SD, Table S1), the IC50, lay at 144 ± 1.7 nM. The same compound registered an IC50 in [8] (setting [11]) of 244 nM. The compound also had a half-maximal inhibitory concentration (IC50) in [8] (setting [12]) of 244.1 ± 1.8 nM. Further, the half-inhibitory concentration (IC50) in [8] (setting [13]) came to 242 ± 2.5 nM. The compound further registered an IC50 in data set [9] (72 h after drug exposure) of 130 nM. Half-maximal inhibition in [9] (mean ± SD, Table S1) (IC50) was put at 130.1 ± 1.1 nM.
